≈ marks a conversion by molar mass, not a printed value. Read-outs that look alike come from different tables or passages of the source.
Assays:
C. albicans [1] = experiment: 7 day kidney bioburden evaluation in neutropenic mice challenged with C. albicans; assay type: in vivo, Swiss-Webster mice; conditions: intraperitoneally once daily for 7 days, 50% of animals with 2 log10 reduction in kidney CFU
Method: (§1) A variety of the compounds synthesized as described in Section 5, supra, were tested in various in vivo assays, as described below. The results of the various assays are provided in TABLE 3, presented at the end of this section. In all of the in vivo assays described, the test compounds, in the form of the aspartate salts, were formulated in an aqueous vehicle (5% mannitol in sterile water; OSMITROL, Baxter Healthcare, Deerfield, Ill.), followed by appropriate dilutions. The formulations were prepared fresh before dosing.
(§2) AmB and AME were also tested for comparison. For AmB, the commercially available FUNGIZONE (Bristol-Meyers Squibb Co.) was used. Reported values are based upon the weight of the AmB active ingredient, not on the basis of the weight of the FUNGIZONE powder. AME was formulated in OSMITROL as described for the test compounds.
Various polyene macrolide amide derivatives of the invention were evaluated for their protective effect when administered intraperitoneally once daily for 7 days to neutropenic mice challenged with live C. albicans.
Swiss-Webster mice (Simonsen Laboratories, Gilroy, Calif.) were made neutropenic by intravenous administration of 5-fluorouracil (150 mg/kg) on study day −1. On study day 0, all mice received by intravenous injection a single inoculum (0.2 mL) containing as estimated 5.0×10^4 CFU of C. albicans. The day of inoculation was designated as study day 0. Beginning the day after infection (on study day 1), mice were treated intraperitoneally with vehicle alone or formulated test compound, once daily for 7 consecutive days.
(§3) The mice were observed daily from study day 1 through study day 8 (1 day after the last dose). Mice found dead or euthanized in extremis were removed from the study without further processing. Surviving mice were euthanized by inhalation of CO2 on study day 8 and both kidneys from each mouse were removed. Each pair of removed kidneys was homogenized in 3 mL of ice-cold PBS containing 10% glycerol. A portion of each homogenate was used to determine log10 CFU per kidney using SDA plates (48 hours of incubation at 30° C.). Kidney log10 CFU data were analyzed using a t-test. The criterion for a statistically significant response was set at p<0.01.
(§4) For comparison, the results for AmB and AME are also provided. Efficacy was defined for individual animals as a greater than 2 log10 reduction in kidney CFU relative to the mean vehicle control value.

C. albicans [2] = experiment: Minimum Inhibitory Concentrations (MICs) against C. albicans, NCCLS M27-A broth dilution; assay type: cell-based
Method: For each compound synthesized, Minimum Inhibitory Concentrations (MICs) against C. albicans were determined as described in Reference Method for Broth Dilution Antifungal Susceptibility Testing of Yeasts, Approved Standard, NCCLS document M27-A (ISBN 1-56238-328-0), NCCLS, 940 West Valley Road, Suite 1400, Wayne, Pa. 19087, 1997.

[3] = Ascending single-dose nephrotoxicity study in rabbits; assay type: in vivo, Female New Zealand white rabbits; conditions: ascending single intravenous infusion doses, urine volume, BUN, creatinine
Method: as §1
AmB and AME were also tested for comparison. For AmB, the commercially available FUNGIZONE (Bristol-Meyers Squibb Co.) was used. […]
Various polyene macrolide amide derivatives of the invention were evaluated to determine the intravenous dose of administered compound that produces nephrotoxicity in rabbits. Nephrotoxicity was monitored by measuring urine volume and blood urine nitrogen (BUN) and creatinine. […]
Ascending single doses were administered by intravenous infusion into an ear vein at a rate of 0.6 mL/min. […] Body weights were recorded before each dose, as well as 2 days after the last dose. Blood samples were collected from the rabbits two days prior to the first dose (study day −2) and approximately 24 hr after each dose and analyzed for BUN and creatinine. […]

[4] = Two week range-finding toxicity study in mice; assay type: in vivo, CD-1 mice; conditions: for NOAEL at 2 week: both sexes, CD-1, mouse, in vivo, iv
Method: as §1, §2
Various polyene macrolide amide derivatives of the invention were evaluated to characterize their potential toxicity when administered subchronically by intravenous injection.
CD-1® mice (Charles River Laboratories, Portage, Mich.) were acclimated to laboratory conditions for at least 5 days before the start of dosing. During the acclimation period, the general condition of the mice was evaluated, and those considered healthy were used. The mice were randomly assigned to treatment groups using a stratified body weight regimen. Each treatment group consisted of 3 male and 3 female mice. The mice were housed in a room with a controlled environment and provided rodent chow and water ad libitum.
On the first day of dosing, the mice were approximately 7 to 9 weeks old and weighed 22 to 30 g. Doses were administered by intravenous injection once daily on study days 1 to 5 and 8 to 12. Dosages were selected based upon data from efficacy and toxicology studies, and ranged from 1.25 to 30 mg/kg/day. Clinical observations were recorded 0.5 hr after dosing on days 1, 3, 5, 8, 10, 12 and 15, and on any day a change was observed. Body weights were recorded prior to dosing and on study days 8 and 12, and on study day 15 at the completion of the in-life phase of the study.
Animals that were found in a moribund/deteriorating clinical state were euthanized (animal designated killed in extremis) by inhalation of CO2. The day of death for any animal found dead or killed in extremis was recorded. Any animal that died prematurely was removed from the study without further processing.
One day after completion of dosing (study day 16), all surviving mice were euthanized by inhalation of CO2. Their kidneys were preserved for histopathologic examination. The maximum no-observed-adverse-effect level (NOAEL) was determined on the basis of clinical and histopathologic findings. The values for AmB and AME are provided for comparison.

[5] = human, in vivo; cited from earlier work
[6] = rats; cited from earlier work
C. albicans [7] = experiment: 5 day kidney bioburden evaluation in immunocompetent mice challenged with C. albicans; assay type: in vivo, Swiss-Webster mice; conditions: intraperitoneally once daily for 5 days, immunocompetent mice, C. albicans, 50% of animals with 2 log10 reduction in kidney CFU
Method: as §1, §2
Various polyene macrolide amide derivatives of the invention were evaluated for their protective effect when administered intraperitoneally once daily for 5 days to immunocompetent mice challenged with live C. albicans.
C. albicans was grown on Sabouraud dextrose agar (SDA) plates for 48 hr. Colonies were harvested and washed twice by centrifugation in phosphate-buffered saline (PBS). The washed pellets were resuspended in PBS and diluted to achieve the desired number of fungi per milliliter. A portion of the inoculum was plated on SDA plates to determine the colony-forming units (CFU) per milliliter.
Swiss-Webster mice (Simonsen Laboratories, Gilroy, Calif.) were administered by intravenous injection a single inoculum (0.2 mL) containing as estimated 2.0×10^5 CFU of C. albicans. The day of inoculation was designated as study day 0. Beginning three days after injection, mice were treated intraperitoneally with vehicle alone or formulated test compound once daily for 5 consecutive days.
as §3, with “day 0” for “day 1”, “day 10 (3 days” for “day 8 (1 day”, “day 10” for “day 8”
as §4

[8] = dogs; cited from earlier work
[9] = Maximum non-lethal dose (NLD), single intravenous dose in mice; assay type: in vivo, Swiss-Webster male mice; conditions: test compounds as aspartate salts in 5% mannitol, AmB as FUNGIZONE
Method: as §1, §2
Maximum non-lethal dose (NLD) data were obtained for selected compounds. A single intravenous dose was administered to each of four mice (Swiss-Webster male mice; Simonsen Laboratories, Gilroy, Calif.) in several groups. The doses selected were based upon the NLDs of compounds of similar structures. After review of findings, higher or lower doses were administered and a NLD was determined. The results are tabulated in TABLE 3, below (NLD Acute Mice). The values for AmB and AME are provided for comparison

Row | SMILES | ED50 mice 7 day (C. albicans [1]) [mg/kg] | MIC (C. albicans [2]) [µg/mL] | NOAEL acute rabbit [3] [mg/kg] | NOAEL 2 week mice clinical ([4]; intravenous once daily on days 1 to 5 and 8 to 12, clinical findings) [mg/kg] | NOAEL 2 week mice histological ([4]; intravenous once daily on days 1 to 5 and 8 to 12, histopathologic (kidney) findings) [mg/kg] | adverse effects in clinical trial [5] | acute, nephro- and hepato-toxicity versus amphotericin B [6] | ED50 mice 5 day (C. albicans [7]) [mg/kg] | acute, nephro- and hepato-toxicity versus amphotericin B [8] | NLD acute mice [9] [mg/kg] | ED50 (C. albicans [1]; Candida albicans, ip, 168 h) [mg/kg] | MIC (C. albicans [2]; Candida albicans, read-out: MIC) [µg/mL] | NOAEL at 2 week ([4]; NOAEL 2 week mice clinical) [mg/kg] | NOAEL at 2 week ([4]; NOAEL 2 week mice histological) [mg/kg] | ED50 (C. albicans [7]; Candida albicans, ip, 120 h, read-out: ED50 mice 5 day) [mg/kg]
1 | COC(=O)[C@H]1[C@@H]2C[C@@H](O[C@@H]3O[C@H](C)[C@@H](O)[C@H](N)[C@@H]3O)/C=C/C=C/C=C/C=C/C=C/C=C/C=C/[C@H](C)[C@@H](O)[C@@H](C)[C@H](C)OC(=O)C[C@H](O)C[C@H](O)CC[C@@H](O)[C@H](O)C[C@H](O)C[C@](O)(C[C@@H]1O)O2 [AME, amphotericin B methyl ester, reference compound] | 8.3 | 0.75 (≈ 0.799 µM) | 7.5 | >32 | >32 | many patients developed progressive neurological dysfunction associated with white matter degeneration | lower acute, nephro- and hepato-toxicity than amphotericin B | 13.1 | lower acute, nephro- and hepato-toxicity than amphotericin B | 60 | – | – | – | – | –
2 | CC1[C@H](C)OC(=O)C[C@H](O)C[C@H](O)CC[C@@H](O)[C@H](O)C[C@H](O)C[C@]2(O)C[C@H](O)C(C(=O)NCCN3CCCCC3)C(C[C@@H](OC3O[C@H](C)[C@@H](O)[C@H](NC[C@@]4(O)OC[C@@H](O)[C@H](O)[C@@H]4O)[C@@H]3O)/C=C/C=C/C=C/C=C/C=C/C=C/C=C/[C@H](C)[C@H]1O)O2 (stereo partly shown) [Compound 114] | – | – | – | – | – | – | – | – | – | 40 | 6.1 | 4 (≈ 3.34 µM) | 9 | 9 | 9
